According to patent US11413278B2, “Compounds and methods for promoting stress resistance” (priority 2015, dated 2022):
Like-named read-outs stand apart in the source and are kept apart here.

Columns and labels:
WI-38 cells [1] = test: Propidium iodide (PI) cell-death imaging upon H2O2 stress; assay type: cell-based, human; settings: for Assay 7: H2O2-resistant, at 10 uM, validated by propidium iodide (PI) cell-death imaging: w/H2O2, 3 hrs/4 hrs/5 hrs, YES/NO; for cytotoxicity at 10 µM: Homo sapiens, WI-38
human PARP1 = biological target: T1, human PARP1 (Homo sapiens, UniProt P09874); test: PARP inhibitor assay (HT Fluorescent Homogeneous PARP Inhibition Assay Kit); assay type: biochemical; settings: score
T1 construct: purchased Trevigen
Method: (§1) The assay was performed with the HT Fluorescent Homogeneous PARP Inhibition Assay Kit (Trevigen), following manufacturer's instructions. Briefly, nicotinamide adenine dinucleotide, human PARP1 and activated-DNA solution was added onto a 96-well plate. 54 repurchased small molecules, at 10 μM final concentration, were introduced onto the 96-well assay plate and incubated in a humid chamber at room temperature for 30 min in dark. Cycling mixture, with resazurin and cycling enzyme diaphorase, was then added and incubated further for 1 hr in dark. Reaction was terminated by adding the stopping buffer.
as §1, with “(Trevegen),” for “(Trevigen),”, “stopped” for “terminated”

NRF2 = test: in vitro; assay type: cell-based, human
LC3A/B puncta = test: Autophagy induction analysis (LC3A/B puncta immuno-staining); assay type: cell-based, human; settings: for Assay 15: Potential autophagy induction by LC3A/B puncta assays: 10 uM & 20 uM, YES/NO; for Exp. 1, induction of LC3A/B puncta (Up), total intensity normalized by total number of nuclei in the fields / Exp. 1, normalized change of nuclei numbers (Less cells): Exp. 1, 10 μM, 10X objective; for Exp. 1, induction of LC3A/B puncta (Up), total intensity normalized by total number of nuclei in the fields / Exp. 1, normalized change of nuclei numbers (Less cells) / Exp. 2, normalized change of nuclei numbers (Less cells): WI-38 cells; for Exp. 2, normalized change of nuclei numbers (Less cells): 20X objective, lysosomal LAMP co-staining
Method: Immuno-staining of LC3A/B was performed, following a standard protocol. Briefly, WI-38 cells were treated with small molecules for 24 hrs, and then processed and incubated with primary antibody (Cell Signaling, rabbit anti-LC3A/B, 1:100) overnight at 4° C. Next day, samples were processed and incubated with fluorophore-conjugated secondary antibody and further incubated with DAPI dye. Images were collected on the INCell Analyzer 2000 (Experiment 1: 10× objective; Experiment 2: 20× objective) and analyzed with the Developer Toolbox. For Experiment 2, lysosomal-associated membrane protein 2 (LAMP2) was also counter-stained to identify the LC3A/B puncta that colocalize with lysosome and the data were analyzed by the MetaXpress software (Molecular Devices, version 5.1). The intensity of total (Exp. 1) or LAMP2-colocalized LC3A/B puncta (Exp. 2) was normalized the total numbers nuclei in the fields.
These assays were performed, following the same procedures to analyze DNA-damage markers. WI-38 cells were incubated with small molecules for 24 hrs, and then processed and incubated with primary antibody (rabbit anti-LC3A/B, 1:100) overnight at 4 C. The next day, samples were processed and incubated with fluorophore-conjugated secondary antibody and further incubated with DAPI dye. Images were collected on an INCell Analyzer 2000 and analyzed with the Developer software. Total LC3A/B puncta intensity was normalized the total numbers of DAPI-positive nuclei.

[2] = Summary score for characterization of 38 core set hits; settings: for D = Triple resistant: 2-point score, multiplex resistance (cadmium, MMS, H2O2); for S = Sum of Negative scores: human; for C = H2O2- & Cd-resistant: score, resistance to both H2O2 and cadmium
Method: 38 “core set” small molecules are listed and are assigned a score, based on the result for each individual characterization. From our small molecule screen for H2O2-resistance, we isolated 61 top hits. […] Specifically, a 2-point score was assigned to the most well-known and prominent longevity-related phenotypes, such as multiplex resistance, activation of FOXO3 and/or NRF2, and down-regulation of mTOR. Small molecules were also analyzed for their ability to extend C. elegans' lifespan in 4 to 6 independent trials, and the lifespan score scale is from 0 to 2: 0 for no obvious effects, 1 for lifespan extension observed in 2 trials, 2 for observed in more than 2 trials. Certain molecules appeared to have DNA-damaging effects and/or potential cell-toxicity in cultured human cells, and they receive a negative point.

WI-38 cells [3] = settings: for No H2O2 stress treatment, at 10 uM (fold change): normalized ATP measurement; for Assay 1: H2O2-resistant: YES/NO, if NO, possibly due to repeated freezing/thawing of stocks
[4] = H2O2 3 hrs, 10 uM, n = 6, negative control 5.44% ± 0.79%, read-out: Percentage of propidium iodide-positive dead cells (under H2O2 stress treatment), 3 hrs
[5] = H2O2 4 hrs, 10 uM, n = 6, negative control 16.81% ± 1.42%, read-out: Percentage of propidium iodide-positive dead cells (under H2O2 stress treatment), 4 hrs
[6] = H2O2 5 hrs, 10 uM, n = 6, negative control 22.50% ± 1.53%, read-out: Percentage of propidium iodide-positive dead cells (under H2O2 stress treatment), 5 hrs
[7] = pre-treatment at 10 uM, 3.5 hours of H2O2, DMSO control 27.4% ± 6.5%, */**/*** = reduced by one/two/three standard deviations, read-out: Percentage of propidium iodide-positive dead cells (under H2O2 stress treatment), at 10 uM
[8] = WI-38 cells, 10 μM, (*) = compromised ability to protect cells from H2O2, could be due to stability issue
[9] = asterisks indicate the loss of the ability to protect cells from H2O2 over time
[10] = derived from dose response curves, 0.6-20 uM, H2O2-resistance of WI-38 cells
[11] = read-out: Est. ED50, dose response 0.6-20 μM, H2O2-resistance

T1 sequence (P09874 whole entry): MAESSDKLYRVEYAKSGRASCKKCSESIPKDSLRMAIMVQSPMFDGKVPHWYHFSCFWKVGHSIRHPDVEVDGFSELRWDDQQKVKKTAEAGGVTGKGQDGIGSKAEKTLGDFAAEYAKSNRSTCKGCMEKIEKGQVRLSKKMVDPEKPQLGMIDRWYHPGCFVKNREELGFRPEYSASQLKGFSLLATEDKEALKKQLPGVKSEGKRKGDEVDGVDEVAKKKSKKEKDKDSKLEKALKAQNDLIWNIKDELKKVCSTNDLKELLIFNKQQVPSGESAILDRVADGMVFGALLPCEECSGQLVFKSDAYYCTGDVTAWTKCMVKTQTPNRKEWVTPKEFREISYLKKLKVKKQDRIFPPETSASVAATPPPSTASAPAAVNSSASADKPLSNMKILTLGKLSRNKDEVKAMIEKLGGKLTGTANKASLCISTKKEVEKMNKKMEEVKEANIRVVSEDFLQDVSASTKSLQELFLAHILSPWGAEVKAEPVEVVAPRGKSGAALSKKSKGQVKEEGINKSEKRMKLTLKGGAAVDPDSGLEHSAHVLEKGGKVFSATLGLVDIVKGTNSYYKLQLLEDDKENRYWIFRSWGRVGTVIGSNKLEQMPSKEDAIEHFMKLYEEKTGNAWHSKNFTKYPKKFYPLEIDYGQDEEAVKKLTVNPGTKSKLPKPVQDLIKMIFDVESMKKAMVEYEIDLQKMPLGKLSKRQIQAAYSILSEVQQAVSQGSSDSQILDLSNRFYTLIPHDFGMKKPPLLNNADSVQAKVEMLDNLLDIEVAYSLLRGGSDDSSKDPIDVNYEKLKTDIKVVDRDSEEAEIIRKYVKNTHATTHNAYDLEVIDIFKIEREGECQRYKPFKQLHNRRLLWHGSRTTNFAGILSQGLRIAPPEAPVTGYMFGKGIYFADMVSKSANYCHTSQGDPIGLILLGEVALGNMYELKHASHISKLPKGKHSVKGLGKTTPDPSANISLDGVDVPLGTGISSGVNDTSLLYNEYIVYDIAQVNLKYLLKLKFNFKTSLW

Row | Structure (SMILES) | Assay 7: H2O2-resistant, at 10 uM, validated by propidium iodide (PI) cell-death imaging (WI-38 cells [1]; 10 uM) | cytotoxicity at 10 µM (WI-38 cells [1]; [4]) [%] | cytotoxicity at 10 µM (WI-38 cells [1]; [5]) [%] | cytotoxicity at 10 µM (WI-38 cells [1]; [7]) [%] | L = PARP inhibition (human PARP1) | J = NRF2-dependency for H2O2-resistance (NRF2; score) | J = NRF2-dependency for H2O2-resistance (NRF2; summary score) | Assay 15: Potential autophagy induction by LC3A/B puncta assays (LC3A/B puncta) | Exp. 1, induction of LC3A/B puncta (Up), total intensity normalized by total number of nuclei in the fields (LC3A/B puncta) | H = Potential Autophagy Induction (LC3A/B puncta; score) | H = Potential Autophagy Induction (LC3A/B puncta; summary score) | D = Triple resistant [2] | S = Sum of Negative scores [2] | C = H2O2- & Cd-resistant [2] | H2O2-resistant (WI-38 cells [3]; [8]) | No H2O2 stress treatment, at 10 uM (fold change) (WI-38 cells [3]; WI-38 cells) | Assay 1: H2O2-resistant (WI-38 cells [3]) | H2O2-resistant (WI-38 cells [3]; [9]) | EC50 (WI-38 cells [3]; [10]) [µM] | EC50 (WI-38 cells [3]; [11]) [µM] | also measured
1 | NS(=O)(=O)c1ccc(NC(=O)c2ccc([N+](=O)[O-])o2)cc1 [Gr-1A] | YES | 1.44 | 3.18 | 22.6 | 0 | 1 | 1 | YES | p < 0.001; Up, 1876%, | 1 | 1 | 0 | 1 | 1 | YES | 0.72 | YES | YES | 6 | 2.53 | cytotoxicity at 10 µM (WI-38 cells [1]; [6]): 7.49%; Survival of NRF2 siRNA-transfected cells in the absence of H2O2 (NRF2): could reduce the survival; NRF2-dependency for H2O2-resistance, at 10 uM - with H2O2, 2nd experiment (NRF2; 10 uM, experiment 2 (2nd), with H2O2): 2nd, partial.; NRF2-dependency for H2O2-resistance, 2nd experiment (NRF2; 10 uM, with H2O2, NRF2 knockdown in WI-38 cells, YES = resistance reduced by at least 50%, partial = 25% to 50%): partial; Assay 17: NRF2-dependency for H2O2-resistance (NRF2; 10 uM, YES/NO): YES; NRF2-dependency of H2O2-resistance (NRF2 siRNA knockdown) (NRF2; at least 2 of 3 independent experiments): significantly attenuate; viability of non-stressed cells, reduced by (NRF2; human, 24 h, 10 uM): by 30%); Exp. 1, normalized change of nuclei numbers (Less cells) (LC3A/B puncta): Less cells, 55%,; Exp. 2, normalized change of nuclei numbers (Less cells) (LC3A/B puncta; Exp. 2, 10 μM): Less cells, 66%,; Exp. 2, normalized change of nuclei numbers (Less cells) (LC3A/B puncta; Exp. 2, 20 μM): Less cells, 57%,
2 | O=C(Nc1cc(C(F)(F)F)ccc1Cl)c1ccc([N+](=O)[O-])o1 [Gr-1B] | YES | 2.69 | – | 38.1 | 0 | 0 | 0 | – | No induction | 0 | 0 | 0 | 0 | 1 | YES | 0.94 | YES | YES | 6.2 | 2.65 | –
3 | CCc1ccccc1NC(=O)c1ccc([N+](=O)[O-])o1 [Gr-1C] | YES | 2.49 | 3.1 | 7.8 | 0 | 0 | 0 | YES | p < 0.01; Up, 956%, | 1 | 1 | 0 | 1 | 1 | YES | 0.81 | YES | YES | 8 | 2.66 | cytotoxicity at 10 µM (WI-38 cells [1]; [6]): 4.05%; Exp. 1, normalized change of nuclei numbers (Less cells) (LC3A/B puncta): Less cells, 70%,; Exp. 2, normalized change of nuclei numbers (Less cells) (LC3A/B puncta; Exp. 2, 10 μM): Less cells, 58%,; Exp. 2, normalized change of nuclei numbers (Less cells) (LC3A/B puncta; Exp. 2, 20 μM): Less cells, 41%,
4 | O=C(Nc1cccc(Cl)c1)c1ccc([N+](=O)[O-])o1 [Gr-1D] | YES | 6.27 | 5.83 | 36.7 | 0 | 0 | 0 | YES | p < 0.05; Up, 617%, | 1 | 1 | 0 | 1 | 1 | YES | 0.91 | YES | YES | 4.6 | 2.68 | Exp. 1, normalized change of nuclei numbers (Less cells) (LC3A/B puncta): Less cells, 67%,; Exp. 2, normalized change of nuclei numbers (Less cells) (LC3A/B puncta; Exp. 2, 10 μM): Less cells, 67%,; Exp. 2, normalized change of nuclei numbers (Less cells) (LC3A/B puncta; Exp. 2, 20 μM): Less cells, 73%,
